This experiment concerns the target T1, human PI3Kβ (Homo sapiens, UniProt P42338).
T1 construct: made in house
As to the kind of experiment: Biochemical PI3Kbeta (KinaseGlo luminescent kinase assay). The conditions noted are these: 1 μM ATP, mean of n measurements, read-out: PI3Kb/ IC50. The protocol: Test compounds were dissolved in DMSO (10 mM) and transferred into 1.4 mL flat bottom or V-shaped Matrix tubes carrying a unique 2D matrix chip by individual Novartis compound hubs. The numbers of these chips were distinctively linked to Novartis Pharma Numbers. The stock solutions were stored at −20° C. if not used immediately. For the test procedure the vials were defrosted and identified by a scanner whereby a working sheet was generated that guided the subsequent working steps.
Compounds were either manually diluted in DMSO for individual experiments (96 wells enabling 10 cpds at 8 (single points) concentrations) as described in or prepared as described below if tested for profiling in 384-wells. This format enabled the assay of maximally 40 individual test compounds at 8 concentrations (single points) including 4 reference compounds. The dilution protocol included the production of “pre-dilution plates”, “master plates” and “assay plates”.
96 polypropylene well plates were used as pre-dilution plates. A total of 4 pre-dilution plates were prepared including 10 test compounds each on the plate positions A1-A10, one standard compound at A11 and one DMSO control at A12. Programs have been written to run these pipetting steps on the HamiltonSTAR robots.
Identical “assay plates” were then prepared by pipetting 50 nL each of compound dilutions of the “master plates” into 384-well “assay plates”. The compounds were mixed with 4.5 μL of assays components plus 4.5 μL enzyme corresponding to a 1:181 dilution enabling the final concentration of 10, 3.0, 1.0, 0.3, 0.1, 0.03, 0.01 and 0.003 μM, respectively. The preparation of the “master plates” was handled by the Matrix PlateMate Plus robot and replication of “assay plates” by the HummingBird robot.
Catalytically active human PI3Kα, PI3Kβ, PI3Kδ, and mTOR were cloned, expressed and purified as described (Maira S M, Stauffer F, Brueggen J, Furet P, Schnell C, Fritsch C, Brachmann S, Chène P, de Pover A, Schoemaker K, Fabbro D, Gabriel D, Simonen M, Murphy L, Finan P, Sellers W, García-Echeverría C (2008), Mol Cancer Ther. 7:1851-63 and Maira S M, Pecchi S, Brueggen J, Huh K, Schnell C, Fritsch C, Nagel T, Wiesmann M, Brachmann S, Dorsch M, Chène P, Schoemaker K, De Pover A, Menezes D, Fabbro D, Sellers W, García-Echeverría C, Voliva C F (2011), Mol. Cancer Ther. accepted).
The luminescence-based ATP detection reagent KinaseGlo was obtained from Promega, (Cat. No. V6714, Lot No. 236161) through Catalys, Wallisellen, Switzerland. (L-alpha-phosphatidylinositol (PI), Liver, Bovine) were obtained from Avanti Polar Lipid (Cat. No. 840042C, Lot#LPI-274), Phosphatidylinositol-4,5-bisphosphate (PIP(4,5)2 (Avanti, Cat. No. 840046×) or L-α-phosphatidylinositol (PI) was obtained from Avanti Polar Lipid (Cat. No. 840042C, Lot#LPI-274). L-α-Phosphatidylserine (PS) was from Avanti Polar Lipid (Cat. No. 840032C), n-OctylGlucoside Avanti Polar Lipid (Cat. No. 10634425001). Luminescence is a well established readout to determine ATP concentrations and can thus be used to follow the activity of many kinases regardless of their substrate. The Kinase Glo Luminescent Kinase Assay (Promega, Madison/Wis., USA) is a homogeneous HTS method of measuring kinase activity by quantifying the amount of ATP remaining in solution following a kinase reaction.
50 nL of compound dilutions were dispensed onto black 384-well low volume Non Binding Styrene (NBS) plates (Costar Cat. No. NBS#3676) as described in section 8.2. L-α-phosphatidylinositol (PI), provided as 10 mg/ml solution in methanol, was transferred into a glass tube and dried under nitrogen beam. It was then resuspended in 3% OctylGlucoside by vortexing and stored at 4° C. 5 μL of a mix of PI/OG with the PI3Ka and Pi3Kb subtypes were added. Kinase reactions were started by addition of 5 μl of ATP-mix containing in a final volume 10 μL 10 mM TRIS-HCl pH 7.5, 3 mM MgCl2, 50 mM NaCl, 0.05% CHAPS, 1 mM DTT and 1 μM ATP, and occurred at room temperature.
For orientation: Kinase-Glo reads ATP consumption through a luciferase reaction.

T1 sequence (P42338 2-1070 limits assumed): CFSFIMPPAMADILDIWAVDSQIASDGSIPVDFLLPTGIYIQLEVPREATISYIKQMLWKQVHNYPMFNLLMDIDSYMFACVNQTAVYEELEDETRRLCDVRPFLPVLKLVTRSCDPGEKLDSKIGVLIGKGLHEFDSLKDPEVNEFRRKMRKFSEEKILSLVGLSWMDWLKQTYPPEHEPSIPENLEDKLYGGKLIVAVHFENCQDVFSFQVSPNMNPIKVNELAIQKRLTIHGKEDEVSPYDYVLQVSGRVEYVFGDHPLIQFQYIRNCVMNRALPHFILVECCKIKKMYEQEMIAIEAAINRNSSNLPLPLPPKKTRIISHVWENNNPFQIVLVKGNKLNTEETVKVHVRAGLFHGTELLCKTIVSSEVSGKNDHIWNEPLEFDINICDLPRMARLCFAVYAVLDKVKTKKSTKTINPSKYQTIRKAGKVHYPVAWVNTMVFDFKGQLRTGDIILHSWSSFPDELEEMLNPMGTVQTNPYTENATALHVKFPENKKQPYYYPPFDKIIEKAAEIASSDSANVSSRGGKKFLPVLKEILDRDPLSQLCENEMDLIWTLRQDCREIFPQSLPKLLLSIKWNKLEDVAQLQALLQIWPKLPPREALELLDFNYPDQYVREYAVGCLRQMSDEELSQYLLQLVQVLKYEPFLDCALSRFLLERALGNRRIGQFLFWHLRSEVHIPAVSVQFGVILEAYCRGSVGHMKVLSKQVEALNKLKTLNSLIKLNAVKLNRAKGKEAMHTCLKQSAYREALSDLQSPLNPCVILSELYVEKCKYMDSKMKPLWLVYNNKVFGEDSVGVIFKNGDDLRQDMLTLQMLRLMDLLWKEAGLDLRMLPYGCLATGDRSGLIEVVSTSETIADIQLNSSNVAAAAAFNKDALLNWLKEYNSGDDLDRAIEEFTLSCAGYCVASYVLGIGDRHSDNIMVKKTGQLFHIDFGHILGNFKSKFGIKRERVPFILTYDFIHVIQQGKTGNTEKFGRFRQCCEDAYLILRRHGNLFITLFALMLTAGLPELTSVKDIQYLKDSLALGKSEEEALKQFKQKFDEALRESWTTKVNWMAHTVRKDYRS

`C[C@H]1C(CC(C)(C)O)OC(=O)N1c1cc(-c2cnc(N)nc2C(F)(F)F)nc(N2CCOCC2)n1` (mixture of isomers) [Example 26, (4S,5R)- and (4S,5S)-3-(2′-amino-2-morpholino-4′-(trifluoromethyl)-[4,5′-bipyrimidin]-6-yl)-5-(2-hydroxy-2-methylpropyl)-4-methyloxazolidin-2-one]: the IC50 was determined as 124 nM.
Then `CC1(CO)COC(=O)N1c1cc(-c2cnc(N)nc2C(F)(F)F)nc(N2CCOCC2)n1` (racemic) [Example 3, 3-(2′-amino-2-morpholino-4′-(trifluoromethyl)-4,5′-bipyrimidin-6-yl)-4-(hydroxymethyl)-4-methyloxazolidin-2-one], with 18 nM; and `Nc1ncc(-c2cc(N3C(=O)O[C@@H]4[C@@H](O)CC[C@@H]43)nc(N3CCOCC3)n2)c(C(F)(F)F)n1` (racemic) [Example 22, (3aR*,6R*,6aR*)-3-(2′-Amino-2-morpholino-4′-(trifluoromethyl)-[4,5′-bipyrimidin]-6-yl)-6-hydroxyhexahydro-2H-cyclopenta[d]oxazol-2-one], with 48 nM.
Take `Nc1ncc(-c2cc(N3C(=O)OC4C(O)CCC43)nc(N3CCOCC3)n2)c(C(F)(F)F)n1` (single isomer, unassigned) [Example 22A]: the IC50 was found to be 86 nM.
The result for `Nc1ncc(-c2cc(N3C(=O)OC4C(O)CCC43)nc(N3CCOCC3)n2)c(C(F)(F)F)n1` (single isomer, unassigned) [Example 22B] reads 58 nM; that for `C[C@@H](O)C[C@H]1OC(=O)N(c2cc(-c3cnc(N)nc3C(F)(F)F)nc(N3CCOCC3)n2)[C@H]1C` (single isomer, unassigned) [Example 24], 16 nM.
Consider `C[C@H](O)CC1OC(=O)N(c2cc(-c3cnc(N)nc3C(F)(F)F)nc(N3CCOCC3)n2)[C@H]1C` (single isomer, unassigned) [Example 25], for which the IC50 worked out at 11 nM.
Then `C[C@H]1COC(=O)N1c1cc(-c2cnc(N)nc2C(F)(F)F)nc(N2CCOCC2)n1` [Example 1, (S)-3-(2′-Amino-2-morpholin-4-yl-4′-trifluoromethyl-[4,5′]bipyrimidinyl-6-yl)-4-methyl-oxazolidin-2-one], with 6 nM; and `CC1(C)OC(=O)N(c2cc(-c3cnc(N)nc3C(F)(F)F)nc(N3CCOCC3)n2)[C@H]1CO` [Example 2, (S)-3-(2′-Amino-2-morpholin-4-yl-4′-trifluoromethyl-[4,5′]bipyrimidinyl-6-yl)-4-hydroxymethyl-5,5-dimethyl-oxazolidin-2-one], with 20 nM; and `Nc1ncc(-c2cc(N3C(=O)O[C@H]4CCCC[C@@H]43)nc(N3CCOCC3)n2)c(C(F)(F)F)n1` [Example 4, (3aS,7aS)-3-(2′-Amino-2-morpholin-4-yl-4′-trifluoromethyl-[4,5′]bipyrimidinyl-6-yl)-hexahydro-benzooxazol-2-one], with 7 nM.
Take `COC[C@H]1COC(=O)N1c1cc(-c2cnc(N)nc2C(F)(F)F)nc(N2CCOCC2)n1` [Example 5, (S)-3-(2′-Amino-2-morpholin-4-yl-4′-trifluoromethyl-[4,5′]bipyrimidinyl-6-yl)-4-methoxymethyl-oxazolidin-2-one]: the IC50 is 11 nM.
Then `C[C@@H]1OC(=O)N(c2cc(-c3cnc(N)nc3C(F)(F)F)nc(N3CCOCC3)n2)[C@H]1CO` [Example 6], with 7 nM.
Then `[2H]C1([2H])OC([2H])([2H])C([2H])([2H])N(c2nc(-c3cnc(N)nc3C(F)(F)F)cc(N3C(=O)O[C@H](C)[C@@H]3CO)n2)C1([2H])[2H]` [Example 8], with 4 nM; and `Nc1ncc(-c2cc(N3C(=O)OC[C@@H]3CCO)nc(N3CCOCC3)n2)c(C(F)(F)F)n1` [Example 9, (S)-3-(2′-Amino-2-morpholin-4-yl-4′-trifluoromethyl-[4,5′]bipyrimidinyl-6-yl)-4-(2-hydroxy-ethyl)-oxazolidin-2-one], with 41 nM.
On to `C[C@H]1OC(=O)N(c2cc(-c3cnc(N)nc3C(F)(F)F)nc(N3CCOC[C@@H]3C)n2)[C@H]1CO` [Example 10, (4S,5R)-3-[2′-Amino-2-((S)-3-methyl-morpholin-4-yl)-4′-trifluoromethyl-[4,5′]bipyrimidinyl-6-yl]-4-hydroxymethyl-5-methyl-oxazolidin-2-one], for which the IC50 came out at 38 nM.
`Nc1ncc(-c2cc(N3CCOC3=O)nc(N3CCOCC3)n2)c(C(F)(F)F)n1` [Example 11, 3-(2′-Amino-2-morpholin-4-yl-4′-trifluoromethyl-[4,5′]bipyrimidinyl-6-yl)-oxazolidin-2-one, reference compound]: the IC50 amounted to 12 nM.
As for `C[C@H]1OC(=O)N(c2cc(-c3cnc(N)nc3C(F)(F)F)nc(N3CCOCC3)n2)[C@H]1COC=O` [Example 12, Formic acid (4S,5R)-3-(2′-amino-2-morpholin-4-yl-4′-trifluoromethyl-[4,5′]bipyrimidinyl-6-yl)-5-methyl-2-oxo-oxazolidin-4-ylmethyl ester], the IC50 turned out to be 49 nM.
The result for `C[C@H]1COCCN1c1nc(-c2cnc(N)nc2C(F)(F)F)cc(N2C(=O)OC[C@@H]2C)n1` [Example 13, (S)-3-[2′-Amino-2-((S)-3-methyl-morpholin-4-yl)-4′-trifluoromethyl-[4,5′]bipyrimidinyl-6-yl]-4-methyl-oxazolidin-2-one] reads 146 nM; that for `Nc1ncc(-c2cc(N3C[C@@H](CO)OC3=O)nc(N3CCOCC3)n2)c(C(F)(F)F)n1` [Example 14, (S)-3-(2′-Amino-2-morpholin-4-yl-4′-trifluoromethyl-[4,5′]bipyrimidinyl-6-yl)-5-hydroxymethyl-oxazolidin-2-one], 18 nM.
The result for `C[C@H]1[C@H](CO)OC(=O)N1c1cc(-c2cnc(N)nc2C(F)(F)F)nc(N2CCOCC2)n1` [Example 15, (4S,5R)-3-(2′-Amino-2-morpholin-4-yl-4′-trifluoromethyl-[4,5′]bipyrimidinyl-6-yl)-5-hydroxymethyl-4-methyl-oxazolidin-2-one] reads 21 nM; that for `C[C@H]1CN(c2cc(-c3cnc(N)nc3C(F)(F)F)nc(N3CCOCC3)n2)C(=O)O1` [Example 16, (S)-3-(2′-Amino-2-morpholin-4-yl-4′-trifluoromethyl-[4,5′]bipyrimidinyl-6-yl)-5-methyl-oxazolidin-2-one], 20 nM.
Turning to `[2H]C1([2H])OC([2H])([2H])C([2H])([2H])N(c2nc(-c3cnc(N)nc3C(F)(F)F)cc(N3C(=O)OC[C@@H]3C)n2)C1([2H])[2H]` [Example 17, (S)-3-(2′-amino-2-D8-morpholino-4′-(trifluoromethyl)-[4,5′-bipyrimidin]-6-yl)-4-methyloxazolidin-2-one], the IC50 was 7 nM.
Then `C[C@H]1OC(=O)N(c2cc(-c3cnc(N)nc3C(F)(F)F)nc(N3CCOCC3)n2)[C@H]1CO` [Example 18, (4S,5R)-3-(2′-Amino-2-morpholin-4-yl-4′-trifluoromethyl-[4,5′]bipyrimidinyl-6-yl)-4-hydroxymethyl-5-methyl-oxazolidin-2-one], with 4 nM.
Then `C[C@H]1[C@@H](CO)OC(=O)N1c1cc(-c2cnc(N)nc2C(F)(F)F)nc(N2CCOCC2)n1` [Example 19, (4S,5S)-3-(2′-Amino-2-morpholin-4-yl-4′-trifluoromethyl-[4,5′]bipyrimidinyl-6-yl)-5-hydroxymethyl-4-methyl-oxazolidin-2-one], with 5 nM.

Source of the values: patent publication US8865894B2, “Oxazolidin-2-one compounds and uses thereof” (Novartis AG, priority 2012, dated 2014).
